Each structure is given as a SMILES string.

Drawing on ChEMBL document CHEMBL1141055, “Discovery of novel conformationally restricted diazocan peptidomimetics as inhibitors of interleukin-1beta synthesis” (Bioorg Med Chem Lett, 2005), this text covers IC50 for 19 compounds.

In test [1] the test system is THP-1. Briefly: Inhibition of 1 ug/mL LPS-induced IL1-beta production in human monocytic cells after 4 hrs. In kind it is functional, cell-based. Particulars: THP-1, 4 h.
For test [2], the target named is Caspase-8 (Homo sapiens, UniProt Q14790). The experiment in a line: Inhibition of caspase 8 using fluorogenic substrate and BMG Fluostar plate reader for 30 min at 37 degree C.
Test [3] deals with T1, Caspase-1 (Homo sapiens, UniProt P29466).
T1 sequence (P29466 whole entry): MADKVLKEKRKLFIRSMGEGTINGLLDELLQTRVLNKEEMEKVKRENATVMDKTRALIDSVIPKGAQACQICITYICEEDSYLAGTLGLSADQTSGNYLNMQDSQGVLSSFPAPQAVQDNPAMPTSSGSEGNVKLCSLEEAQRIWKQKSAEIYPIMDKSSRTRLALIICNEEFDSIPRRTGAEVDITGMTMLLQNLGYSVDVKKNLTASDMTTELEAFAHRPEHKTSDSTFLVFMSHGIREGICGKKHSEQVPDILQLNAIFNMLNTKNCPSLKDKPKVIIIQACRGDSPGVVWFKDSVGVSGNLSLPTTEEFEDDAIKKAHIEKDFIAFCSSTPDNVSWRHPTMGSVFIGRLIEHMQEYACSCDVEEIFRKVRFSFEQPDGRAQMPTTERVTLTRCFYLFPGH
Briefly: Inhibition of caspase-1 using fluorogenic substrate and BMG Fluostar plate reader for 30 min at 37 degree C.

The target of test [4] is T2, Caspase-3 (Homo sapiens, UniProt P42574).
T2 sequence (P42574 whole entry): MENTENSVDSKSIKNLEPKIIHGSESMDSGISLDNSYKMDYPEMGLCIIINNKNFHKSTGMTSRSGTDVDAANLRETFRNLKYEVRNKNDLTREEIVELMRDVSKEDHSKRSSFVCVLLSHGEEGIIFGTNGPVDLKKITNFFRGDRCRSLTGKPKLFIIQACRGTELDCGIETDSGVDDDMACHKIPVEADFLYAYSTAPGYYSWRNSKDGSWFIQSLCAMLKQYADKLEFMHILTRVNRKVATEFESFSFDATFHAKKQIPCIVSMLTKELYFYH
The experiment in a line: Inhibition of caspase 3 using fluorogenic substrate and BMG Fluostar plate reader for 30 min at 37 degree C.

Chain of Caspase-8 (Q14790 217-374 limits assumed): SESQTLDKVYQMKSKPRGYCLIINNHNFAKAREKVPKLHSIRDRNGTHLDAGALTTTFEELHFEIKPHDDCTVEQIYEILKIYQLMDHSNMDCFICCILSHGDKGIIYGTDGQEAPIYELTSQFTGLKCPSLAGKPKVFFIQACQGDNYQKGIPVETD
Chain of Caspase-8 (Q14790 385-479 limits assumed): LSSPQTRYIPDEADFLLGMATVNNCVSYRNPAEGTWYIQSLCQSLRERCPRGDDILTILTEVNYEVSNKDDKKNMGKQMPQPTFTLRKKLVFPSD

Turning to `O=C(CN1CCCN(C(=O)C2CCCCC2)C[C@H](NC(=O)c2ccc3ccccc3c2)C1=O)N[C@H]1CC(=O)OC1O` (stereo partly specified), in test [1], the IC50 – broadly, the midpoint of a concentration-inhibition curve – was 577 nM.
In test [1], `O=C(CN1CCCN(C(=O)Cc2ccccc2)C[C@H](NC(=O)c2ccc3ccccc3c2)C1=O)N[C@H]1CC(=O)OC1O` (stereo partly specified) yielded a concentration for half-maximal inhibition (IC50) of 808 nM.
Still for that read-out and setting: for `CC(=O)N1CCCN(CC(=O)N[C@H]2CC(=O)OC2O)C(=O)[C@@H](NC(=O)c2ccc3ccccc3c2)C1` (stereo partly specified) the value was 216 nM; for `O=C(CN1CCCN(C(=O)c2cccc(C(F)(F)F)c2)C[C@H](NC(=O)c2ccc3ccccc3c2)C1=O)N[C@H]1CC(=O)OC1O` (stereo partly specified), 1740 nM; for `Cc1ccc(Cl)cc1C(=O)N1CCCN(CC(=O)N[C@H]2CC(=O)OC2O)C(=O)[C@@H](NC(=O)c2ccc3ccccc3c2)C1` (stereo partly specified), greater than 2500 nM.
The same measure, in the same setting: the value for `O=CN1CCCN(CC(=O)N[C@H]2CC(=O)OC2O)C(=O)[C@@H](NC(=O)c2ccc3ccccc3c2)C1` (stereo partly specified) was 219 nM.
Regarding `O=C(CN1CCCN(C(=O)N2CCOCC2)C[C@H](NC(=O)c2ccc3ccccc3c2)C1=O)N[C@H]1CC(=O)OC1O` (stereo partly specified), the IC50 in test [2] is greater than 10000 nM; in test [3], 44 nM; in test [1] it was 224 nM; in test [4], greater than 10000 nM.
The compound `O=C(CN1CCCN(C(=O)c2ccccc2)C[C@H](NC(=O)c2cccc(C(F)(F)F)c2)C1=O)N[C@H]1CC(=O)OC1O` (stereo partly specified) returned a half-inhibitory concentration (IC50) in test [1] of 1020 nM.
On to `O=C(CN1CCCN(C(=O)c2ccccc2)C[C@H](NC(=O)c2nccc3ccccc23)C1=O)N[C@H]1CC(=O)OC1O` (stereo partly specified), for which the IC50 in test [2] is greater than 10000 nM; in test [3] it was 30 nM; in test [1], 280 nM; in test [4] it was greater than 10000 nM.
Take `O=C(CN1CCCN(C(=O)c2ccccc2)C[C@H](NC(=O)c2ccc3ccccc3c2)C1=O)N[C@H]1CC(=O)OC1O` (stereo partly specified): the IC50 in test [2] was greater than 10000 nM; in test [3], 19 nM; in test [1] it was 205 nM; in test [4], greater than 10000 nM.
In the case of `O=C(CN1CCCN(C(=O)c2ccccc2)C[C@H](NC(=O)c2cc3ccccc3s2)C1=O)N[C@H]1CC(=O)OC1O` (stereo partly specified), the midpoint of inhibition in test [1], the IC50, lay at 560 nM. This counts as sub-micromolar.
For `COc1cccc(C(=O)N2CCCN(CC(=O)N[C@H]3CC(=O)OC3O)C(=O)[C@@H](NC(=O)c3ccc4ccccc4c3)C2)c1` (stereo partly specified), the concentration for half-maximal inhibition (IC50) in test [2] is greater than 10000 nM; in test [3] it was 15 nM; in test [1], 229 nM; in test [4], greater than 10000 nM.
On to `O=C(CN1CCCN(C(=O)c2cccc(F)c2)C[C@H](NC(=O)c2ccc3ccccc3c2)C1=O)N[C@H]1CC(=O)OC1O` (stereo partly specified), for which the IC50 is greater than 10000 nM in test [2], 22 nM in test [3], 297 nM in test [1] and greater than 10000 nM in test [4].
With `COc1ccccc1C(=O)N1CCCN(CC(=O)N[C@H]2CC(=O)OC2O)C(=O)[C@@H](NC(=O)c2ccc3ccccc3c2)C1` (stereo partly specified), the IC50 in test [2] was greater than 10000 nM; in test [3], 38 nM; in test [1], 246 nM; in test [4], greater than 10000 nM.
On to `O=C(CN1CCCN(C(=O)N2CCNCC2)C[C@H](NC(=O)c2ccc3ccccc3c2)C1=O)N[C@H]1CC(=O)OC1O` (stereo partly specified), for which the IC50 in test [2] is greater than 10000 nM; in test [3], 24 nM; in test [1], 285 nM; in test [4], greater than 10000 nM.
Take `O=C(CN1CCCN(C(=O)c2ccccc2)C[C@H](NC(=O)c2ccccc2)C1=O)N[C@H]1CC(=O)OC1O` (stereo partly specified): the IC50 in test [1] came to 1020 nM.
Same read-out and setting: for `O=C(CN1CCCN(C(=O)c2ccccc2C(F)(F)F)C[C@H](NC(=O)c2ccc3ccccc3c2)C1=O)N[C@H]1CC(=O)OC1O` (stereo partly specified) the value was 1520 nM; for `Cc1ccc(Cl)cc1C(=O)N[C@H]1CN(C(=O)c2ccccc2)CCCN(CC(=O)N[C@H]2CC(=O)OC2O)C1=O` (stereo partly specified), 298 nM.
As to `CCO[C@@H]1OC(=O)C[C@@H]1NC(=O)[C@@H]1CCCN2C(=O)CC[C@H](NC(=O)c3nccc4ccccc34)C(=O)N12` [PRALNACASAN], the IC50 in test [3] turned out to be 2 nM; in test [1] it was 120 nM.
